ChEMBL document CHEMBL3739388, “Attenuation of TNF-α secretion by L-proline-based cyclic dipeptides produced by culture broth of Pseudomonas aeruginosa” (Bioorg Med Chem Lett, 2015)
Values after ≈ are worked out from the molar mass of the structure shown.

Experiments:
[1] = test system: RAW264.7; assay: Inhibition of LPS-induced TNF-alpha production in mouse RAW264.7 cells pretreated with compound at 10 uM for 1 hr followed by addition of 1 ug/ml LPS for 6 hrs by ELISA; format: functional
[2] = test system: RAW264.7; assay: Inhibition of LPS-induced IL-1beta mRNA level in mouse RAW264.7 cells in presence of 1 ug/ml LPS for 6 hrs by qRT-PCR analysis; format: functional, cell-based
[3] = test system: RAW264.7; assay: Inhibition of LPS-induced TNF-alpha mRNA level in mouse RAW264.7 cells in presence of 1 ug/ml LPS for 6 hrs by qRT-PCR analysis; format: functional, cell-based
[4] = test system: RAW264.7; assay: Toxicity in mouse RAW264.7 cells assessed as effect on NO production by Griess method; format: cell-based
[5] = test system: RAW264.7; assay: Toxicity in mouse RAW264.7 cells assessed as effect on TNF-alpha mRNA level by qRT-PCR analysis; format: cell-based
[6] = test system: RAW264.7; assay: Inhibition of LPS-induced TNF-alpha production in mouse RAW264.7 cells pretreated with compound at 100 uM for 1 hr followed by addition of 1 ug/ml LPS for 6 hrs by ELISA; format: functional
[7] = Cytotoxicity against mouse RAW264.7 cells assessed as decrease in cell viability pretreated at 50 uM for 1 hr followed by addition of LPS incubated for 24 hrs by MTT assay; format: cell-based; conditions: read-out: INH
[8] = test system: RAW264.7; assay: Inhibition of LPS-induced IL-6 mRNA level in mouse RAW264.7 cells in presence of 1 ug/ml LPS for 6 hrs by qRT-PCR analysis; format: functional, cell-based
[9] = test system: Rattus norvegicus; assay: Inhibition of LPS-induced TNF-alpha production in albino Wistar rat plasma pretreated with compound at 50 mg/kg, po followed by administration of 0.3 mg/kg, ip LPS measured after 90 mins by ELISA; format: functional
[10] = test system: RAW264.7; assay: Inhibition of LPS-induced TNF-alpha production in mouse RAW264.7 cells pretreated with compound for 1 hr followed by addition of 1 ug/ml LPS for 6 hrs by ELISA; format: functional, cell-based
[11] = test system: RAW264.7; assay: Inhibition of LPS-induced NO production in mouse RAW264.7 cells at 100 ug/ml cotreated with 1 ug/ml LPS for 16 hrs by Griess reagent method; format: functional

IC50 [10]	Compound	inhibition (INH) [1]	inhibition [2]	inhibition [3]	Activity [4]	Activity [5]	inhibition (INH) [6]	cytotoxicity at 24 h, 50 µM [7]	inhibition [8]	inhibition (INH) [9]	inhibition (INH) [11]
	C[C@]12C=CC(=O)C=C1CC[C@@H]1[C@@H]2[C@@H](O)C[C@@]2(C)[C@H]1CC[C@]2(O)C(=O)CO [PREDNISOLONE]	42.8%									
	O=C1N[C@@H](Cc2ccccc2)C(=O)N2CCC[C@@H]12		Dose-dependent effect	Dose-dependent effect	Non-toxic	Non-toxic	45%	3%	Dose-dependent effect		
	CC(C)C[C@@H]1NC(=O)[C@@H]2C[C@@H](O)CN2C1=O		Dose-dependent effect	Dose-dependent effect	Non-toxic	Non-toxic	49.3%	3%	Dose-dependent effect	51%	
14.2 µg/mL (≈ 54.6 µM)	O=C1N[C@@H](Cc2ccccc2)C(=O)N2C[C@H](O)C[C@@H]12		Dose-dependent effect	Dose-dependent effect	Non-toxic	Non-toxic		3%	Dose-dependent effect		43.5%
4.5 µg/mL (≈ 29.2 µM)	O=C1NCC(=O)N2CCC[C@@H]12 [CYCLO(PROLYLGLYCYL)]		Dose-dependent effect	Dose-dependent effect	Non-toxic	Non-toxic		3%	Dose-dependent effect		39.7%
